Columns and labels:
Mus musculus = organism: Mus musculus; test: The compound was tested for inhibition of murine splenocyte proliferation by [3H]thymidine incorporation; format: functional, organism-based
Homo sapiens = organism: Homo sapiens; test: The compound was tested for inhibition of human splenocyte proliferation by [3H]thymidine incorporation; format: functional, organism-based

SMILES | EC50 (Mus musculus) | EC50 (Homo sapiens)
CCCCC(C)CC(C)C(=O)N(C)[C@@H](CC(C)C)C(=O)N[C@H](C(=O)N(C)[C@H](C(=O)N1C[C@@H](O)C[C@H]1C(=O)N1C(=O)C=CC1C)C(C)C)C(C)OC(C)=O (some centres not stated) | 0.02 nM | 0.02 nM
CCCCC(C)CC(C)C(=O)N(C)[C@@H](CC(C)C)C(=O)N[C@H](C(=O)N(C)[C@H](C(=O)N1C[C@@H](O)C[C@H]1C(=O)N1C(=O)C=CC1C)C(C)C)C(C)O (some centres not stated) | 0.006 nM | 0.04 nM
CCCCC(C)CC(C)C(=O)N(C)[C@@H](CC(C)C)C(=O)N[C@H](C(=O)N(C)[C@H](C(=O)N1C[C@@H](OC(C)=O)C[C@H]1C(=O)N1C(=O)C=CC1C)C(C)C)C(C)OC(C)=O (some centres not stated) | 19 nM | 10.2 nM
CCCCC(C)CC(C)C(=O)N(C)[C@@H](CC(C)C)C(=O)N[C@H](C(=O)N(C)[C@H](C(=O)N1CCC[C@H]1C(=O)N1C(=O)C=CC1C)C(C)C)C(C)OC(C)=O (some centres not stated) | 20.5 nM | 4.1 nM
CCCCC(C)CC(C)C(=O)N(C)[C@@H](CC(C)C)C(=O)N[C@H](C(=O)N(C)[C@H](C(=O)OC)C(C)C)C(C)OO (some centres not stated) | 380 nM | 380 nM
CCCCC(C)CC(C)C(=O)N(C)[C@@H](CC(C)C)C(=O)N[C@H](C(=O)N(C)[C@H](C(=O)N1C[C@@H](O)C[C@H]1C(=O)OC)C(C)C)[C@@H](C)O (some centres not stated) | > 781 nM | > 781 nM
CCCCC(C)CC(C)C(=O)N(C)[C@@H](CC(C)C)C(=O)N[C@@H]1C(=O)N(C)[C@@H](C(C)C)C(=O)O[C@@H]1C (some centres not stated) | 10 nM | 8.1 nM
CCCCC(C)CC(C)C(=O)N(C)[C@@H](CC(C)C)C(=O)N[C@H](C(=O)N(C)[C@H](C(=O)N1CCC[C@H]1C(=O)N1C(=O)CCC1C)C(C)C)C(C)OC(C)=O (some centres not stated) | > 668 nM | 341 nM
CC1C=CC(=O)N1C(=O)[C@@H]1C[C@H](O)CN1 (some centres not stated) | > 2400 nM | > 2400 nM
CCCCC(C)CC(C)C(=O)N(C)[C@@H](CC(C)C)C(=O)N[C@H](C(=O)N(C)[C@H](C(=O)N1C[C@@H](O)C[C@H]1C(=O)N1C(=O)CCC1C)C(C)C)C(C)OC(C)=O (some centres not stated) | > 668 nM | > 668 nM
CCCCC(C)CC(C)C(=O)N(C)[C@@H](CC(C)C)C(=O)N[C@H](C(=O)N(C)[C@H](C(=O)N1CC(=O)C[C@H]1C(=O)N1C(=O)C=CC1C)C(C)C)C(C)OC(C)=O (single isomer, unassigned) | 5.4 nM | 5.4 nM
